According to patent EP2276483B1, “SOLID FORMS COMPRISING (+)-2-[1-(3-ETHOXY-4-METHOXYPHENYL)-2-METHYLSULFONYLETHYL]-4-ACETYLAMINOISOINDOLINE-1,3-DIONE, COMPOSITIONS THEREOF, AND USES THEREOF” (CELGENE CORPORATION, priority 2008, dated 2009):

Assays:
[1] = biological target: T1, PDE5 from human platelets (Homo sapiens, UniProt O76074); experiment: PDE5 enzyme assay; type: biochemical
T1 construct: PDE5 from human platelets; from tissue; host or cells: human platelets

[2] = system: CD18; experiment: fMLF-induced CD18 expression on neutrophils; type: cell-based; conditions: Neutrophil; human neutrophils; 30 nM fMLF
Protocol: CD18/CD11b (Mac-1) expression on neutrophils was measured as previously described (Derian et al., 1995, J. Immunol., 154:308-3 17) with the following modifications. Neutrophils were isolated as described above, then resuspended in complete medium at 1x10^6 cells/ml, pretreated with compounds at 10, 1, 0.1, 0.01, and 0 µM in duplicate at a final DMSO concentration of 0.1% for 10 minutes at 37°C 5%CO2. Cells were then stimulated with 30 nM fMLF for 30 minutes and then chilled to 4°C. Cells were treated with rabbit IgG (Jackson ImmunoResearch Labs, West Grove, PA, USA) (10 µg/1x10^6 cells) to block Fc receptors, stained with CD18-FITC and CD11b-PE (Becton Dickinson), and analyzed by flow cytometry on a FACSCalibur. CD18/CD11b expression (mean fluorescence) in the absence of stimulation was subtracted from all samples to obtain inhibition curves and calculate IC50 values.

[3] = system: cAMP; experiment: PGE2-induced cAMP elevation in human PBMC; type: cell-based; conditions: PGE2 (10µM)
Protocol: Prostaglandin E2 (PGE2) binds to prostanoid receptors on monocytes, T cells and other leukocytes and consequently elevates intracellular cAMP levels, resulting in inhibition of cellular responses. The combination of PGE2 and a PDE4 inhibitor synergistically elevates cAMP levels in these cell types, and the elevation of cAMP in PBMC caused by PDE4 inhibitors in the presence of PGE2 is proportional to the inhibitory activity of that PDE4 inhibitor. Intracellular cAMP was measured in human PBMC as follows. PBMC were isolated as described above and plated in 96-well plates at 1 x 10^6 cells per well in RPMI-1640. The cells were pre-treated with compounds at 100, 10, 1, 0.1, 0.01, and 0 µM in a final concentration of 2% DMSO in duplicate at 37°C in a humidified incubator at 5% CO2 for one hour. The cells were then stimulated with PGE2 (10µM) (Sigma) for 1h. The cells were lysed with HCl, 0.1 N final concentration to inhibit phosphodiesterase activity and the plates were frozen at -20°C. The cAMP produced was measured using cAMP (low pH) Immunoassay kit (R&D Systems).

[4] = system: subjects with moderate to severe plaque-type psoriasis; experiment: Phase 2 randomized double-blind placebo-controlled study in moderate to severe plaque-type psoriasis; type: in vivo, human
Protocol: This phase 2, multicenter, randomized, double-blind, placebo-controlled, parallel-group, dose-comparison study evaluated the efficacy and safety of Compound A in subjects with moderate to severe plaque-type psoriasis who were candidates for systemic therapy.
This study included a 12-week treatment phase followed by a 4-week observational follow-up phase. A total of 260 subjects were randomized to receive Compound A 20 mg BID, Compound A 20 mg QD, or placebo for 12 weeks. The primary endpoint for this study was the proportion of subjects treated with Compound A who achieved a 75% reduction in Psoriasis Area and Severity Index score ("PASI-75") at week 12/last treatment in reference to the baseline visit. Last treatment is defined as the last PASI assessment completed during the 12-week treatment phase.

[5] = system: LTB4; experiment: fMLF-induced LTB4 production in neutrophils; type: cell-based; conditions: Neutrophil; human neutrophils; 1 µM fMLF
Protocol: N-formyl-methionine-leucine-phenylalanine (fMLF) is a bacterially derived peptide that activates neutrophils to rapidly degranulate, migrate, adhere to endothelial cells, and release leukotriene LTB4, a product of arachidonic acid metabolism and itself a neutrophil chemoattractant. Compounds were tested for the ability to block fMLF-induced neutrophil LTB4 production as previously described (Hatzelmann and Schudt, 2001, J. Pharm. Exp. Ther., 297:267-279), with the following modifications. Neutrophils were isolated as described above and resuspended in phosphate-buffered saline without calcium or magnesium (BioWhittaker) containing 10 mM HEPES pH 7.2 and plated in 96-well tissue culture plates at a concentration of 1.7 x 10^6 cells/well. Cells were treated with 50 µM thimerosal (Sigma)/1 mM CaCl2/1 mM MgCl2 for 15 minutes at 37°C 5% CO2, then treated with compounds at 1000, 200, 40, 8, 1.6, 0.32, 0.064, and 0 nM in a final DMSO concentration of 0.01 % in duplicate for 10 minutes. Neutrophils were stimulated with 1 µM fMLF for 30 minutes, then lysed by the addition of methanol (20% final concentration) and frozen in a dry ice/isopropanol bath for 10 minutes. Lysates were stored at -70°C until the LTB4 content was measured by competitive LTB4 ELISA (R&D Systems).

[6] = system: IFN-γ; experiment: SEB-induced IFN-γ production in human PBMC; type: cell-based; conditions: 100 ng/ml SEB
[7] = system: PDE4 (from U937 cells); experiment: PDE4 (U937 cell-derived) enzyme assay; type: biochemical, human; conditions: 1 µM cAMP
Protocol: PDE4 enzyme was purified from U937 human monocytic cells by gel filtration chromatography as previously described (Muller et al., 1998, Bioorg. & Med. Chem. Lett. 8:2669-2674). Phosphodiesterase reactions were carried out in 50 mM Tris HCl pH 7.5, 5 mM MgCl2, 1 µM cAMP, 10 nM [^3H]-cAMP for 30 min at 30°C, terminated by boiling, treated with 1 mg/ml snake venom, and separated using AG-1XS ion exchange resin (BioRad) as described (Muller et al., 1998, Bioorg. & Med. Chem. Lett. 8:2669-2674). Reactions consumed less than 15% of available substrate. Table 1. PDE Specificity

[8] = 20 mg BID, week 12/last treatment

CCOc1cc(C(CS(C)(=O)=O)N2C(=O)c3cccc(NC(C)=O)c3C2=O)ccc1OC (single isomer, unassigned; (+)) [Compound A, (+)-2-[1-(3-ethoxy-4-methoxyphenyl)-2-methylsulfonylethyl]-4-acetylaminoisoindoline-1,3-dione]
PDE Specificity Ratio PDE4/PDE5 ([1]; from above data): >30000 fold | inhibition at 10 µM ([1]; read-out: PDE5 (% inhib at 10 µM)): 3% | IC50 [2]: 390 nM | EC50 [3]: 1580 nM | study drug-related serious adverse events ([4]; 20 mg BID or 20 mg QD for 12 weeks): No study drug-related serious adverse events | mean decrease in PASI from baseline [4, 8]: 52% | proportion of subjects who achieved PASI-50 [4, 8]: 57% | proportion of subjects who achieved PASI-90 [4, 8]: 14% | proportion of subjects who achieved a PASI-75 ([4]; 20 mg BID, week 12/last treatment, P=0.023 vs placebo): 24% | tolerability and safety ([4]; 12 weeks of treatment): well tolerated and safe | IC50 [5]: 2.48 nM | IC50 [6]: 46 nM | IC50 [7]: 73.5 nM
